Data from patent publication US20220323329A1, “ORAL HEALTH COMPOSITION AND PREPARATION PROCESS FOR ORAL HEALTH COMPOSITION” (MMF&T DESENVOLVIMENTO TECNOLÓGICO E INOVAÇÃO LTDA., priority 2019, published 2022).

Legend:
[1] = tested on: Candida albicans (ATCC 10231); assay: Antimicrobial potential of phthalocyanine by direct contact; assay type: cell-based; details: different concentrations and timespans (10.000 mg and 1.000 mg, 24 hours in FIG. 2)
Description: (§1) Studies were carried out for the improvement of antimicrobial potential of phthalocyanines, in an intrinsic aim of developing toothpastes, such as dental creams and dental foams including phthalocyanine for in vitro studies and possibly also in vivo studies.
(§2) For this purpose, the following microorganisms were used: Streptococcus mutans (ATCC 25175); Candida albicans (ATCC 10231); Enterococcus faecalis (ATCC 29212); and Staphylococcus aureus (ATCC 6538).

[2] = tested on: Streptococcus mutans (ATCC 25175); assay: as above; assay type: cell-based; details: different concentrations and timespans (10.000 mg and 1.000 mg, 3 and 5 minutes in FIGS. 5, 6)
Description: as §1, §2

[3] = tested on: Enterococcus faecalis (ATCC 29212); assay: as above; assay type: cell-based; details: different concentrations and timespans (10.000 mg and 1.000 mg, 24 hours in FIG. 3)
Description: as §1, §2

[4] = tested on: Staphylococcus aureus (ATCC 6538); assay: as above; assay type: cell-based; details: different concentrations and timespans (10.000 mg and 1.000 mg, 24 hours in FIG. 4)
Description: as §1, §2

[5] = PDT with phthalocyanine-glucamine as PTS; rats; cited from earlier work

| Molecule | microbicidal action / inhibition of microbial growth [1] | microbicidal action / inhibition of microbial growth [2] | microbicidal action / inhibition of microbial growth [3] | microbicidal action / inhibition of microbial growth [4] | treatment of induced periodontal disease [5] |
| --- | --- | --- | --- | --- | --- |
| c1ccc2c(c1)-c1nc-2nc2[nH]c(nc3nc(nc4[nH]c(n1)c1ccccc41)-c1ccccc1-3)c1ccccc21 [phthalocyanine] | full inhibition of microbial growth | full inhibition of microbial growth | full inhibition of microbial growth | full inhibition of microbial growth | – |
| phthalocyanine-glucamine | – | – | – | – | effective in the treatment of periodontal disease induced in rats |
